# Test results as given in patent US10323044B2, “Crystal of imidazo-oxazine, pharmaceutical composition containing said crystal, and method for producing said crystal” (TAIHO PHARMACEUTICAL CO., LTD., priority 2015, dated 2019).
# Experiment: Solid stability test (storage stability; powder X-ray diffraction and HPLC analog amount)
# Assay type: physicochemical
# Settings: 40° C. (hermetically sealed), six months, brown glass bottle
# Method: Powder X-ray diffraction was performed by lightly pulverizing an appropriate amount of a test substance using an agate mortar as necessary, and measuring the test substance in accordance with the following test conditions.
# The storage stability of crystal I of the imidazooxazine compound obtained in accordance with Example 1 was tested after six months of storage at 40° C.
# Storage condition: 40° C. (hermetically sealed)
# Measurement point: Six months
# Container: Brown glass bottle
# The powder X-ray diffraction of the sample after storage was measured using the method described above. Alternations in analog amount were analyzed by HPLC according to the following manner.
# Method for preparing a sample solution: the sample was dissolved in 50% acetonitrile so that the concentration of the sample became 0.5 mg/mL.
# Column: Acentis express C18, 4.6×150 mm, 2.7 μm,
# Column temperature: 40° C.
# Column flow rate: 1.5 mL/min
# Mobile phase: A; 0.1% phosphate, B; acetonitrile
compound,measurement,setting,value
"C[C@]1(O)C[C@@](N)(c2ccc(-c3nc4n(c3-c3ccccc3)COc3ccncc3-4)cc2)C1 [crystal I, trans-3-amino-1-methyl-3-(4-(3-phenyl-5H-imidazo[1,2-c]pyrido[3,4-e][1,3]oxazin-2-yl)phenyl)cyclobutanol]",changes in powder X-ray diffraction pattern after storage,,not observed
same,amount of analogs (HPLC) after storage,HPLC UV 210 nm,not increased
